Results from doi:10.1101/2023.11.24.568596v1 (biorxiv, 2023).
One block for each molecule: values may come before it.

How the values were obtained:
Conditions in all cases: binder
[1] = target: NDR2 (Homo sapiens, UniProt Q9Y2H1)
[2] = target: CLK1 (Homo sapiens, UniProt P49759)
[3] = target: CaMK2b (Homo sapiens, UniProt Q13554)
[4] = target: CaMKK2 (Homo sapiens, UniProt Q96RR4)
[5] = target: PIM1 (Homo sapiens, UniProt P11309)
[6] = target: T1, CASK (Homo sapiens, UniProt O14936)
T1 sequence (O14936 1-926): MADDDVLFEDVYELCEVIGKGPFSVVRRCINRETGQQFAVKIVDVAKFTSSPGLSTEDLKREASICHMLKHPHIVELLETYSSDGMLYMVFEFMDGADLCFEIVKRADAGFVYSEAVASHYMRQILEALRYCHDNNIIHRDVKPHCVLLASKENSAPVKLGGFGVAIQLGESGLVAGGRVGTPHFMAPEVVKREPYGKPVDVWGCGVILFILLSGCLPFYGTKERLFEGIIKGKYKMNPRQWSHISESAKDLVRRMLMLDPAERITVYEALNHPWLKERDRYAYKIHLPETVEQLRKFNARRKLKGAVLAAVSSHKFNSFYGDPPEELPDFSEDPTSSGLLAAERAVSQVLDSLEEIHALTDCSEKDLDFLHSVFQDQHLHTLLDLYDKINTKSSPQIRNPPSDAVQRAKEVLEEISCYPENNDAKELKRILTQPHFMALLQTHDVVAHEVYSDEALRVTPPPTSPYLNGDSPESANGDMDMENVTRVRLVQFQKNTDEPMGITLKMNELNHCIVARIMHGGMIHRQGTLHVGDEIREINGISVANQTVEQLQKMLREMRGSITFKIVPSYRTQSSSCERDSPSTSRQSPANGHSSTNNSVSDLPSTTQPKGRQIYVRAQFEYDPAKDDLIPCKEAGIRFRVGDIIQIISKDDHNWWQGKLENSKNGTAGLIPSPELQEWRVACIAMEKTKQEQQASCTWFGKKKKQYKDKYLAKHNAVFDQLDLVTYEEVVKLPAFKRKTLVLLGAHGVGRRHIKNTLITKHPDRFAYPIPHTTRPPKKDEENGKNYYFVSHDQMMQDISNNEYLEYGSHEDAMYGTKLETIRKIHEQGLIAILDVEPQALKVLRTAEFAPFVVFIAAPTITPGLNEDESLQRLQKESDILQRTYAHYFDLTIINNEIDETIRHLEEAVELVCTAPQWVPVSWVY

[7] = target: MARK3 (Homo sapiens, UniProt P27448)
[8] = target: EphA7 (Homo sapiens, UniProt Q15375)
[9] = target: GSK3B (Homo sapiens, UniProt P49841)
[10] = target: T2, BRPF1 (Homo sapiens, UniProt P55201)
T2 sequence (P55201 1-1214): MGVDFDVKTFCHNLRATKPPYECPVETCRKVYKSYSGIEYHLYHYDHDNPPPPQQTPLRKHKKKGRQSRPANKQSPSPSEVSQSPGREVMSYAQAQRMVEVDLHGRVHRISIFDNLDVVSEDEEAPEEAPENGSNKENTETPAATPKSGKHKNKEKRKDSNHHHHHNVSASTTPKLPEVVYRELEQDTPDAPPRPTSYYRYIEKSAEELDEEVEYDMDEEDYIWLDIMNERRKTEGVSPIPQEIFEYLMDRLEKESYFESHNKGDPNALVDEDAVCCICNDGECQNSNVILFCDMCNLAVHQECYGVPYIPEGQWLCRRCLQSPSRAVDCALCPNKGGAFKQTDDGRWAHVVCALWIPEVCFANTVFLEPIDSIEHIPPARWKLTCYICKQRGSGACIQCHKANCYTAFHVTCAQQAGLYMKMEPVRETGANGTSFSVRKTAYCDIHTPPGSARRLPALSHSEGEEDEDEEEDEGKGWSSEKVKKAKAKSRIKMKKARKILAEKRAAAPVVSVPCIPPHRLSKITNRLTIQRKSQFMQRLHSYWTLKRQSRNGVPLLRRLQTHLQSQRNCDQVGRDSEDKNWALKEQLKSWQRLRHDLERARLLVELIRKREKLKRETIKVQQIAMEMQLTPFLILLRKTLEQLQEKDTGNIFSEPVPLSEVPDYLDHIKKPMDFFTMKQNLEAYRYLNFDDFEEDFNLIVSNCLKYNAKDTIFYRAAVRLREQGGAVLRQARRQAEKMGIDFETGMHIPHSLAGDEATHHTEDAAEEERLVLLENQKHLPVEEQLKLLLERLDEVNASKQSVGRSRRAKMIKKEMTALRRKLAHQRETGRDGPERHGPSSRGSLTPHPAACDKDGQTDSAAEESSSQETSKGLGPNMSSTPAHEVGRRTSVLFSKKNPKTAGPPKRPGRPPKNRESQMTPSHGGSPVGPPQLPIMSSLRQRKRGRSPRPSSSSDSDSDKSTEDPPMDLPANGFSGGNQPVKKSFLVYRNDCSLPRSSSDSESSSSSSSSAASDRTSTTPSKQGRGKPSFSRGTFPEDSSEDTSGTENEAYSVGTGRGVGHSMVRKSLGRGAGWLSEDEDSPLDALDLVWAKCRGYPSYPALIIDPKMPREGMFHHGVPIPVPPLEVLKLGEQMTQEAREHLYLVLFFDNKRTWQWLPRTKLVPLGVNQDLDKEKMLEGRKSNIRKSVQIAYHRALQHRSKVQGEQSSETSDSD

[11] = target: FLT1 (Homo sapiens, UniProt P17948)
Sequence of FLT1 (P17948 whole entry): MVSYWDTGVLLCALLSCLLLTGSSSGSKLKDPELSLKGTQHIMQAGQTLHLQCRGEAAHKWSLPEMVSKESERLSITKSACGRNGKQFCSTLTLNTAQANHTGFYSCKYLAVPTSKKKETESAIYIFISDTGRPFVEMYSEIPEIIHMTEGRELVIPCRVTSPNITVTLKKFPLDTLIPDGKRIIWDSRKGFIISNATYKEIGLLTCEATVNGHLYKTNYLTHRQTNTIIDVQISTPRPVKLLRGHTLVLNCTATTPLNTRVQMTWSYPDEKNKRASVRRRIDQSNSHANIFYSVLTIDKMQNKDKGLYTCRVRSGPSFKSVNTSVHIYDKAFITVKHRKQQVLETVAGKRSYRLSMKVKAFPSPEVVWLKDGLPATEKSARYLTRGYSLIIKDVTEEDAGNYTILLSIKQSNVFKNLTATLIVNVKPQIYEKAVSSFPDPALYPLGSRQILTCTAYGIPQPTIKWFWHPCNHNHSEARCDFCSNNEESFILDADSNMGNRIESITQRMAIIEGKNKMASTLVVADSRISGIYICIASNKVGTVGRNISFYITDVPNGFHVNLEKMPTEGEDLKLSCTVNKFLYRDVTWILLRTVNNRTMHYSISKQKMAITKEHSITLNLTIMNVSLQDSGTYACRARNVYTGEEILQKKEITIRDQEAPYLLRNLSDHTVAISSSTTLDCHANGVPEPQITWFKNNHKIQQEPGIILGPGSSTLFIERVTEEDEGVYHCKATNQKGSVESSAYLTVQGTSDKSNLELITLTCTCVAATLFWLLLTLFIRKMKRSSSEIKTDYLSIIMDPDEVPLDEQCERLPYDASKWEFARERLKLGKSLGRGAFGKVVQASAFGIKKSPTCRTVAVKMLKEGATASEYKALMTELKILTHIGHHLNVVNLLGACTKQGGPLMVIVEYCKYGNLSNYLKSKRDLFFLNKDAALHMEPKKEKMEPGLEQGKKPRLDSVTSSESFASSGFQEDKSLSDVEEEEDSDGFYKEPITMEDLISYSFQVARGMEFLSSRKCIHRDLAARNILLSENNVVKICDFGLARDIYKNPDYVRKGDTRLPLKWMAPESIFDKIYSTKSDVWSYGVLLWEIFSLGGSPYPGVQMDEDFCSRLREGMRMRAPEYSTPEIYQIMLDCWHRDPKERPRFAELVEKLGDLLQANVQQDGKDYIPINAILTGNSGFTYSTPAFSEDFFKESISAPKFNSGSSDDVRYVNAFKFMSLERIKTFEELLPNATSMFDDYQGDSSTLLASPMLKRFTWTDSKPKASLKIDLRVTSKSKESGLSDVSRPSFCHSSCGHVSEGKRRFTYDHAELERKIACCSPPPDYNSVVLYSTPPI

Sequence of CaMKK2 (Q96RR4 whole entry): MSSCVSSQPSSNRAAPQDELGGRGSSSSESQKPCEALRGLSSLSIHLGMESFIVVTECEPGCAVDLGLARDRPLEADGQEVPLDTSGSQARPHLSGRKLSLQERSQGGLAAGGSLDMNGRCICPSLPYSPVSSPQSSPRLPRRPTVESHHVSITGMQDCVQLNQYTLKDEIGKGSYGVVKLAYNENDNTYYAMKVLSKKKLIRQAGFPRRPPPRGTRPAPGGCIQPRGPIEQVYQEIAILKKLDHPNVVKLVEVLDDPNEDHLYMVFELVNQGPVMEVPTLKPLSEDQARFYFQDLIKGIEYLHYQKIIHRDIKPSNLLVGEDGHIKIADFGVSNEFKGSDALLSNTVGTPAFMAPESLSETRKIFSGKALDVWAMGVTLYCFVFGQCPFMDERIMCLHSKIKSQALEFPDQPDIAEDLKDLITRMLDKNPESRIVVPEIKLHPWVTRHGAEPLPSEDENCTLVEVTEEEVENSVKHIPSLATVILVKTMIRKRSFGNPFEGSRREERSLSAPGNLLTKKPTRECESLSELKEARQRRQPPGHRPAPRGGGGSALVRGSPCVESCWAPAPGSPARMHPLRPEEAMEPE
Sequence of MARK3 (P27448 whole entry): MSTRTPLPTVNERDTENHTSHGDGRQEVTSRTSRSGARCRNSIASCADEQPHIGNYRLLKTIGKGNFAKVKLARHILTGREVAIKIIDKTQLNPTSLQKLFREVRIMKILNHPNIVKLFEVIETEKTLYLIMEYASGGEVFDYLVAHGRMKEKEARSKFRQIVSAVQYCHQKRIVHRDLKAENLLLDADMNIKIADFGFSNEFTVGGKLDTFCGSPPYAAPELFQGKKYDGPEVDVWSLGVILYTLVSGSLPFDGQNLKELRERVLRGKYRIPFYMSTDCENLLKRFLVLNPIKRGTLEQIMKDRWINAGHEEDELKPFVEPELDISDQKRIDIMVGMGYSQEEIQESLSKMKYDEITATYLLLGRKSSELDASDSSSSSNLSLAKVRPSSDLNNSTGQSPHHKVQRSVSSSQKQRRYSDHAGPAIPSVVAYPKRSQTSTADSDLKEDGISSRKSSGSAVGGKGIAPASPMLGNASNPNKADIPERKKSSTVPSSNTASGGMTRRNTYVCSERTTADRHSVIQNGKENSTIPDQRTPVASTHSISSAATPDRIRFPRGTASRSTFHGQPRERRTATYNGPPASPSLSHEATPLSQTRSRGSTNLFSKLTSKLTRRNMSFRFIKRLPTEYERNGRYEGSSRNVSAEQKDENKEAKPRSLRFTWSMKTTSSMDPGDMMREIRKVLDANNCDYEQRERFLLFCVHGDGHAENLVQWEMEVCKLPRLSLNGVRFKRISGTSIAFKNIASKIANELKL
Sequence of CLK1 (P49759 whole entry): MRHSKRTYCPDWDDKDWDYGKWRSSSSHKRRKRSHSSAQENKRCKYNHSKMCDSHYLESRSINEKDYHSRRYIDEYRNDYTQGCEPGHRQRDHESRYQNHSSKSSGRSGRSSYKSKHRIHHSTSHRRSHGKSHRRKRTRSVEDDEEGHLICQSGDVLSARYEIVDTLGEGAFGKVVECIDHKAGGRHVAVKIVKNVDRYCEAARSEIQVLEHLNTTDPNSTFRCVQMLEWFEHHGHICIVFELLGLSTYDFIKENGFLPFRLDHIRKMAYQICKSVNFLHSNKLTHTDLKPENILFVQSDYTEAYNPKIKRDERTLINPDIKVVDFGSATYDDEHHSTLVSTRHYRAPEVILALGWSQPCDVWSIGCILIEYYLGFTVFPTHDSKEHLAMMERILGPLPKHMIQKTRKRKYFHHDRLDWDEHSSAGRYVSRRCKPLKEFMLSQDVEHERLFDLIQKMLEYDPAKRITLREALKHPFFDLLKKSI
Sequence of CaMK2b (Q13554 whole entry): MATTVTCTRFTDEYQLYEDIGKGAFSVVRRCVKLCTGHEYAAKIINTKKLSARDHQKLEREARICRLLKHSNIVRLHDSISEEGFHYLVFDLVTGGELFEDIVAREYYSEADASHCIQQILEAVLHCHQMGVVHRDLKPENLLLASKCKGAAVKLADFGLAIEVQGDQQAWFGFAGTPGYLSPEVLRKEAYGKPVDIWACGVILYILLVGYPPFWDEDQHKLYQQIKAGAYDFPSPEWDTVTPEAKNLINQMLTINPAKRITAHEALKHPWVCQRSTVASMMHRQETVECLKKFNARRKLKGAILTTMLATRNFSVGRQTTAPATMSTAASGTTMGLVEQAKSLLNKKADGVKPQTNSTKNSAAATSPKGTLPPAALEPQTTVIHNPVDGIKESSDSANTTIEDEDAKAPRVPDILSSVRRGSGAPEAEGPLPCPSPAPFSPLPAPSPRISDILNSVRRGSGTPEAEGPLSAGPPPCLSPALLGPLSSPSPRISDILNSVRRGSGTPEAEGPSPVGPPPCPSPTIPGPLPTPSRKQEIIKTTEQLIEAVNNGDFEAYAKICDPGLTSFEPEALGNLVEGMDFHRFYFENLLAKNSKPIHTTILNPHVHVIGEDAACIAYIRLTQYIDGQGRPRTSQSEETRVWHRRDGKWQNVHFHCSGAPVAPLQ
Sequence of GSK3B (P49841 whole entry): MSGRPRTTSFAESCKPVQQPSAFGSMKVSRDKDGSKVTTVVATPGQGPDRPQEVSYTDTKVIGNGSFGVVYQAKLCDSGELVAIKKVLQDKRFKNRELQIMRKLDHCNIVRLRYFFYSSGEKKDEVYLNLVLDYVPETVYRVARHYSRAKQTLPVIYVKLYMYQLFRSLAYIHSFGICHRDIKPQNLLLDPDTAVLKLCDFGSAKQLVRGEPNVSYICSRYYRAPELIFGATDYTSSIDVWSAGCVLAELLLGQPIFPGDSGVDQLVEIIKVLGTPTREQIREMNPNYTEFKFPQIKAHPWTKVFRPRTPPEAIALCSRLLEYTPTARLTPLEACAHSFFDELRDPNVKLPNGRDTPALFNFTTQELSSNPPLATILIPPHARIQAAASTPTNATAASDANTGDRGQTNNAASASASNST
Sequence of PIM1 (P11309 whole entry): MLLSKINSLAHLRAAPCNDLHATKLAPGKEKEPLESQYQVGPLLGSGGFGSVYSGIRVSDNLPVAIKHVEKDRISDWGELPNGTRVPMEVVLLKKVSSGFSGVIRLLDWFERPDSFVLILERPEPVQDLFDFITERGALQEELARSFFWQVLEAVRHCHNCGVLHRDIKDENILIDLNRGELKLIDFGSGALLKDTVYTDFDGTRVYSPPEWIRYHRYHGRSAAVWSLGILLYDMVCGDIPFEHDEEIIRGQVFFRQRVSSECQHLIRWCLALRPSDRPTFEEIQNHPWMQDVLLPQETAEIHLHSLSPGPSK
Sequence of NDR2 (Q9Y2H1 whole entry): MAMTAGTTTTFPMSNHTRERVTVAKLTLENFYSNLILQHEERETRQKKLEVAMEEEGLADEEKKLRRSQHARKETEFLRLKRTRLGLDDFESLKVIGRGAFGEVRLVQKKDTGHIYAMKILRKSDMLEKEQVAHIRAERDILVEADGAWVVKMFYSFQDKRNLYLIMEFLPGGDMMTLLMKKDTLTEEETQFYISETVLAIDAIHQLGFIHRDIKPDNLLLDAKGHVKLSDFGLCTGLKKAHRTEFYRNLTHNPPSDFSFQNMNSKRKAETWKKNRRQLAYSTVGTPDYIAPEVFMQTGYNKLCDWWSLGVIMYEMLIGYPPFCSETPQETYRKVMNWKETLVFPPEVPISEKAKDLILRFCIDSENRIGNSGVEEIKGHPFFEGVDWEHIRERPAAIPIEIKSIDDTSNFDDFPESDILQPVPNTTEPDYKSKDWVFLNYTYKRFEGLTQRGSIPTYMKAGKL

ΔTm 22 [1]: 5.1 °C
ΔTm 22 [2]: -1.6 °C
ΔTm 22 [3]: -0.9 °C
ΔTm 22 [4]: 2.3 °C
ΔTm 22 [5]: -0.4 °C
ΔTm 22 [6]: 0.3 °C
ΔTm 22 [7]: 8.8 °C
Structure (SMILES): CNc1ncc2cc(-c3ccc(-c4cccc(C)n4)cc3Cl)c(=O)n(CCC3CCNCC3)c2n1 [compound 22, 6-(2-Chloro-4-(6-methylpyridin-2-yl)phenyl)-2-(methylamino)-8-(2-(piperidin-4-yl)ethyl)pyrido[2,3-d]pyrimidin-7(8H)-one]

ΔTm MRLW5 (20) [1]: 4.6 °C
ΔTm MRLW5 (20) [2]: 0.3 °C
ΔTm MRLW5 (20) [3]: -1.3 °C
ΔTm MRLW5 (20) [4]: 1.4 °C
ΔTm MRLW5 (20) [5]: -0.1 °C
ΔTm MRLW5 (20) [6]: -0.5 °C
ΔTm MRLW5 (20) [7]: 9.3 °C
Structure (SMILES): CNc1ncc2cc(-c3ccc(-c4cccc(C)n4)cc3Cl)c(=O)n(CCCCN)c2n1 [compound 20, MRLW5]

ΔTm 25 [1]: 6.7 °C
ΔTm 25 [2]: 1.4 °C
ΔTm 25 [3]: -0.1 °C
ΔTm 25 [4]: 3.3 °C
ΔTm 25 [5]: 0.3 °C
ΔTm 25 [6]: -0.4 °C
ΔTm 25 [7]: 8.6 °C
Structure (SMILES): Cc1cccc(-c2ccc(-c3cc4cnc(NCCCc5ccc(N)cc5)nc4n(CCCCN)c3=O)c(Cl)c2)n1 [compound 25, 8-(4-Aminobutyl)-2-((3-(4-aminophenyl)propyl)amino)-6-(2-chloro-4-(6-methylpyridin-2-yl)phenyl)pyrido[2,3-d]pyrimidin-7(8H)-one]

ΔTm 28 [8]: 4.2 °C
ΔTm 28 [9]: 0.3 °C
ΔTm 28 [10]: -1.6 °C
ΔTm 28 [11]: 7.8 °C
Structure (SMILES): Cc1cccc(-c2ccc(-c3cc4cnc(Nc5cc(C(F)(F)F)ccc5C)nc4n(CCCCN)c3=O)c(Cl)c2)n1 [compound 28, 8-(4-Aminobutyl)-6-(2-chloro-4-(6-methylpyridin-2-yl)phenyl)-2-((2-methyl-5-(trifluoromethyl)phenyl)amino)pyrido[2,3-d]pyrimidin-7(8H)-one]

ΔTm MR30 (27) [8]: 1.7 °C
ΔTm MR30 (27) [9]: 1.9 °C
ΔTm MR30 (27) [10]: -1.8 °C
ΔTm MR30 (27) [11]: 2.4 °C
Structure (SMILES): Cc1cccc(-c2ccc(-c3cc4cnc(NCCCN5CCCC5=O)nc4n(CCCCN)c3=O)c(Cl)c2)n1 [compound 27, MR30]

ΔTm MR26 (26) [1]: 5.2 °C
ΔTm MR26 (26) [2]: -0.1 °C
ΔTm MR26 (26) [3]: -0.3 °C
ΔTm MR26 (26) [4]: 1.5 °C
ΔTm MR26 (26) [5]: 0.3 °C
ΔTm MR26 (26) [6]: -0.3 °C
ΔTm MR26 (26) [7]: 5.4 °C
Structure (SMILES): Cc1cccc(-c2ccc(-c3cc4cnc(NCCCN5CCOCC5)nc4n(CCCCN)c3=O)c(Cl)c2)n1 [compound 26, MR26]

ΔTm 30 [8]: 6.4 °C
ΔTm 30 [9]: 1.9 °C
ΔTm 30 [10]: -4.4 °C
ΔTm 30 [11]: 4.3 °C
Structure (SMILES): Cc1cccc(-c2ccc(-c3cc4cnc(Nc5ccc(CCCO)cc5)nc4n(CCCCN)c3=O)c(Cl)c2)n1 [compound 30, 8-(4-Aminobutyl)-6-(2-chloro-4-(6-methylpyridin-2-yl)phenyl)-2-((4-(3-hydroxypropyl)phenyl)amino)pyrido[2,3-d]pyrimidin-7(8H)-one]

ΔTm 31 [8]: 5.1 °C
ΔTm 31 [9]: 3.2 °C
ΔTm 31 [10]: -3.4 °C
ΔTm 31 [11]: 5.6 °C
Structure (SMILES): Cc1cccc(-c2ccc(-c3cc4cnc(Nc5ccc(O)cc5)nc4n(CCCCN)c3=O)c(Cl)c2)n1 [compound 31, 8-(4-Aminobutyl)-6-(2-chloro-4-(6-methylpyridin-2-yl)phenyl)-2-((4-hydroxyphenyl)amino) pyrido[2,3-d]pyrimidin-7(8H)-one]

ΔTm 32 [8]: 5.4 °C
ΔTm 32 [9]: 2.2 °C
ΔTm 32 [10]: -1.4 °C
ΔTm 32 [11]: 5.6 °C
Structure (SMILES): Cc1cccc(-c2ccc(-c3cc4cnc(Nc5ccc(C)c(O)c5)nc4n(CCCCN)c3=O)c(Cl)c2)n1 [compound 32, 8-(4-Aminobutyl)-6-(2-chloro-4-(6-methylpyridin-2-yl)phenyl)-2-((3-hydroxy-4-methylphenyl)amino)pyrido[2,3-d]pyrimidin-7(8H)-one]

ΔTm 29 [8]: 4.1 °C
ΔTm 29 [9]: 0.3 °C
ΔTm 29 [10]: -1.2 °C
ΔTm 29 [11]: 3.9 °C
Structure (SMILES): Cc1cccc(-c2ccc(-c3cc4cnc(NCCCN5CCNCC5)nc4n(CCCCN)c3=O)c(Cl)c2)n1 [compound 29, 8-(4-Aminobutyl)-6-(2-chloro-4-(6-methylpyridin-2-yl)phenyl)-2-((3-(piperazin-1-yl)propyl)amino)pyrido[2,3-d]pyrimidin-7(8H)-one]

ΔTm 23 [1]: 3.5 °C
ΔTm 23 [2]: 0.8 °C
ΔTm 23 [3]: 0.2 °C
ΔTm 23 [4]: 4.9 °C
ΔTm 23 [5]: -0.7 °C
ΔTm 23 [6]: -0.4 °C
ΔTm 23 [7]: 10.4 °C
Structure (SMILES): CNc1ncc2cc(-c3ccc(-c4cccc(C)n4)cc3Cl)c(=O)n(C[C@H]3CC[C@H](N)CC3)c2n1 [compound 23, 23]

ΔTm MR24 (24) [1]: 2.6 °C
ΔTm MR24 (24) [2]: -0.4 °C
ΔTm MR24 (24) [3]: -0.8 °C
ΔTm MR24 (24) [4]: 0.2 °C
ΔTm MR24 (24) [5]: 0.5 °C
ΔTm MR24 (24) [6]: -0.4 °C
ΔTm MR24 (24) [7]: 5.8 °C
Structure (SMILES): Cc1cccc(-c2ccc(-c3cc4cnc(NC(CO)CO)nc4n(CCCCN)c3=O)c(Cl)c2)n1 [compound 24, 8-(4-Aminobutyl)-6-(2-chloro-4-(6-methylpyridin-2-yl)phenyl)-2-((1,3-dihydroxypropan-2-yl)amino)pyrido[2,3-d]pyrimidin-7(8H)-one]
